Laboratory results reported in patent US12351571B2, “Substituted quinoxaline compounds as inhibitors of FGFR tyrosine kinases” (ARRAY BIOPHARMA INC., priority 2018, dated 2025).
pIC50: −log10 of the molar value.

Columns and labels:
[1] = target: human wild type FGFR1 (Homo sapiens (Human), UniProt P11362); assay: FGFR1 pERK Cell Assay; type: cell-based; settings: HEK-293 cells, 1 hour compound, 100 ng/ml human FGF-acidic; maximum concentration 5 μM
Method: (§1) HEK-293 cells transfected with doxycycline(dox)-inducible human wild type FGFR1 (SEQ ID NO: 1) were plated in a collagen or poly-D-lysine coated 96 well flat bottom plates at 4×10^5 cells/well in complete Dulbecco's Modified Eagle Medium (DMEM) containing 10% FBS and 1 μg/ml doxycycline and allowed to attach for 24 h at 37° C., 5% CO2. Cells were treated with compound using 1:3 serial dilutions with a maximum final concentration of 5 μM. Compound was incubated on cells for 1 hour at 37° C., 5% CO2. Cells were then stimulated with a final concentration of 100 ng/ml human FGF-acidic (R&D Systems Cat number 232-FA/CF) for 5 minutes at 37° C., 5% CO2. Medium was removed, and cells were lysed with lysis buffer containing phosphatase and protease inhibitors. Phospho ERK1/2 was measured using the Meso Scale Discovery sandwich assay (Meso Scale Discovery cat. no. K151DWD). The assay captures phospho ERK1/2 and detects with a sulfo-tagged total ERK1/2 antibody. The chemiluminescent signal was read on the Sector Imager Plate reader. 100 POC was determined using no test compound and 0 POC was determined using a control compound. The POC values were fit to a 4-parameter logistic curve as a function of the concentration of the compound, and the IC50 value is the point where the curve crosses 50 POC.

[2] = target: human wild type FGFR3 (Homo sapiens (Human), UniProt P22607); assay: FGFR3 pERK Cell Assay; type: cell-based; settings: HEK-293 cells, 1 hour compound, 100 ng/ml human FGF-acidic; maximum concentration 5 μM
Method: as §1, with “with dox-inducible” for “with doxycycline(dox)-inducible”, “type FGFR3” for “type FGFR1”, “NO: 5)” for “NO: 1)”, “complete DMEM medium” for “complete Dulbecco's Modified Eagle Medium (DMEM)”, “test compounds” for “test compound”

[3] = target: recombinant human FGFR2 cytoplasmic domain (Homo sapiens (Human), UniProt P21802); assay: FGFR Enzyme Activity Assay (LanthaScreen TR-FRET), FGFR2; type: biochemical; settings: 15 μM ATP, 20 minute incubation; read-out: FGFR2 Enz FRET IC50
Method: FGFR2 kinase activity was measured by the Invitrogen LanthaScreen™ Assay technology which directly measures the amount of substrate phosphorylation by TR-FRET using a flourescently-labeled peptide and Europium-labeled antibody. Briefly, 200 pM His-tagged recombinant human FGFR2 cytoplasmic domain (amino acids 403-822) (Life Technologies Cat. No. PR5332A) was incubated with 100 nM Alexa Fluor® 647-Poly-GT Peptide Substrate (Life Technologies Cat. No. PV5836) and 15 μM ATP along with test compound in a buffer consisting of 250 mM HEPES, 25 mM MgCl2, 0.05% TritonX-100, pH 7.5, and 2% DMSO. Compounds were typically prepared in a threefold serial dilution in DMSO and added to the assay to give the appropriate final concentration. After a 20 minute incubation at 22° C., an equal volume of 2 nM LanthaScreen® Eu-PY20 Antibody (Life Technologies Cat. No. PV5691) and 10 mM EDTA were added to quench the kinase reaction and start the detection reaction. After an additional 60 minute incubation at 22° C., the reaction was measured using a PerkinElmer EnVision multimode plate reader via TR-FRET dual wavelength detection, and the percent of control (POC) calculated using a ratiometric emission factor. 100 POC was determined using no test compounds and 0 POC was determined using no enzyme. The POC values were fit to a 4-parameter logistic curve as a function of the concentration of the compound, and the IC50 value is the point where the curve crosses 50 POC.

[4] = target: FGFR3 (Homo sapiens (Human), UniProt P22607); assay: LC/MS FGFR3 kobs assay (covalent modification); type: biochemical; settings: 500 nM FGFR3, 3 μM compound
Method: The LC/MS FGFR1 and FGFR3 kobs assays were conducted as follows. 500 nM FGFR1 (Array BioPharma construct p1702; SEQ ID NO: 1, amino acids 458-765) or FGFR3 (Array BioPharma construct p1700; SEQ ID NO: 5, amino acids 449-759) were incubated with 3 μM compound in 25 mM HEPES (4-(2-hydroxyethyl)-1-piperazineethanesulfonic acid), pH 7.4, 5 mM MgCl2, 150 mM NaCl, 0.5 mM TCEP (tris(2-carboxyethyl) phosphine), and 2% DMSO in a total volume of 20 μL. At each time point, the reaction was quenched with 20 μL of 0.4% formic acid. The extent of protein modification by each compound was determined by LC/MS on an Agilent Technologies 6520 Q-TOF LC/MS. Protein signals were then automatically deconvoluted using Agilent Masshunter software. Deconvoluted mass signals were exported to Tibco Spotfire data analysis program for further processing and normalization.
Data analysis included five steps. First, the signals for the “DMSO Controls” were analyzed to determine the percent of signal associated with unmodified FGFR1 or FGFR3 at each time point. Next, the percent of the signal associated with the covalent modification was determined. Third, the average nonmodified “DMSO Control” signal was used to normalize the modified protein signals at each time point. The percent of unmodified protein was fit to an exponential decay model where A0 is the Percent Unmodified at the start of the reaction, and kobs is the observed rate constant over the time period.

human wild type FGFR3, sequence (P22607 23-806): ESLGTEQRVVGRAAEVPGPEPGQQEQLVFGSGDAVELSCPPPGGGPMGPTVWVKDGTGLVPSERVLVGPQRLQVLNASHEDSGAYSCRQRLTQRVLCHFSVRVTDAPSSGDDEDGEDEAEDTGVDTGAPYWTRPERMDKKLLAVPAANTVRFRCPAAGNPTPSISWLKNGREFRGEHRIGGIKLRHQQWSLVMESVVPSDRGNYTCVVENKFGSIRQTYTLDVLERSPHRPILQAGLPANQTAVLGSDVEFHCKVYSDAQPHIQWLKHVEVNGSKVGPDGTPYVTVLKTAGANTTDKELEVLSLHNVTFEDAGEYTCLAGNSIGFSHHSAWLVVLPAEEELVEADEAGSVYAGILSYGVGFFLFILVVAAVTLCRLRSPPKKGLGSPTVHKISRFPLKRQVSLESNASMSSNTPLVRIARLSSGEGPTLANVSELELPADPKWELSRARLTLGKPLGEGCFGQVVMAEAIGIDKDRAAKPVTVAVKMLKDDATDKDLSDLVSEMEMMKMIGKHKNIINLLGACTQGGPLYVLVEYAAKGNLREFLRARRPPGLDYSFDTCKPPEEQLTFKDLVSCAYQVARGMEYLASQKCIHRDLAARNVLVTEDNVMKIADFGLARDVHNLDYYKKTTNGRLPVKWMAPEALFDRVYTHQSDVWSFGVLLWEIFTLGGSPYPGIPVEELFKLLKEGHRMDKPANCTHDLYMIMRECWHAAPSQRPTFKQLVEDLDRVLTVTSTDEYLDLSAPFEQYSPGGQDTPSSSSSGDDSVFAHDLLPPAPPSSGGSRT
FGFR3, sequence (P22607 449-759): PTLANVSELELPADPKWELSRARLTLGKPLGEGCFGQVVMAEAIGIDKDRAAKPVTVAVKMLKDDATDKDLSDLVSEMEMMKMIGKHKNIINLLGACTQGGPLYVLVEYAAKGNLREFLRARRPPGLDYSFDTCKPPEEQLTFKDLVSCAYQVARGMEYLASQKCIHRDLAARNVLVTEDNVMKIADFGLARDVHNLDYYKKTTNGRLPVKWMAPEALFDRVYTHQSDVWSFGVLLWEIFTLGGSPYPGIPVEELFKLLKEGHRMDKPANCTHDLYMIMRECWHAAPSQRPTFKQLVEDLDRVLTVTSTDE
recombinant human FGFR2 cytoplasmic domain, sequence (P21802 402-821): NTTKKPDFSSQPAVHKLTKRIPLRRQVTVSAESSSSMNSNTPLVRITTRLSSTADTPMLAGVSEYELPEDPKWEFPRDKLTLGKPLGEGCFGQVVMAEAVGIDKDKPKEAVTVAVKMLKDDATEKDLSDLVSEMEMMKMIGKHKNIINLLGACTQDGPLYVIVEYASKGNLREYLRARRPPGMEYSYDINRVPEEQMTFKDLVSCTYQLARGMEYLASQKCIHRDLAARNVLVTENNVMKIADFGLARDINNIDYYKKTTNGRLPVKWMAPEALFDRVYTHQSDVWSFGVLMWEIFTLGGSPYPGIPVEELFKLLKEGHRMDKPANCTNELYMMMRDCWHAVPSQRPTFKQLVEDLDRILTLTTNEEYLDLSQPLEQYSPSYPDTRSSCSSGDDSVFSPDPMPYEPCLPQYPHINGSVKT
human wild type FGFR1, sequence (P11362 22-822): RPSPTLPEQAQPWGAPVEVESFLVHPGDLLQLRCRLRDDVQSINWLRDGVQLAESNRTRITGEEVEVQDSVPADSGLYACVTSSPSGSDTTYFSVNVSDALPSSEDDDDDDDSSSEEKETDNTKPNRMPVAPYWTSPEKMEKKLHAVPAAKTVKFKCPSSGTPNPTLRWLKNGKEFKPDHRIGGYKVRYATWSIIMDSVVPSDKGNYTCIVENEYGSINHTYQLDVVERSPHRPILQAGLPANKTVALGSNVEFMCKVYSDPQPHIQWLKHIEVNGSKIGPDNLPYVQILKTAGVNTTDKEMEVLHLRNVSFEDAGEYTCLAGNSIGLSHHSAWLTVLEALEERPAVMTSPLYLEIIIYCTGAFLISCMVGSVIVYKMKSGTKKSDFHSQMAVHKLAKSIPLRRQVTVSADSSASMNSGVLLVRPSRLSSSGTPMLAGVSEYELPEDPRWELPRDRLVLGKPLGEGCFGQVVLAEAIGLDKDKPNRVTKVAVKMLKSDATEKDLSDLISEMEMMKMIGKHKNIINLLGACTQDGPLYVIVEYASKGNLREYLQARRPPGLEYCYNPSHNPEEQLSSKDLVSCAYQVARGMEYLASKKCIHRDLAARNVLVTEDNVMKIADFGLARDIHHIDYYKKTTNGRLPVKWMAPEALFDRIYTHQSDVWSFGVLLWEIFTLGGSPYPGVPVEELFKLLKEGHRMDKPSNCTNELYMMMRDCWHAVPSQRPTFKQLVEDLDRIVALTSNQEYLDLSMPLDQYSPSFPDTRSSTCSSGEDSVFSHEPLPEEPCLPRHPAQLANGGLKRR

| SMILES | pIC50 [1] | pIC50 [2] | pIC50 [3] | FGFR3 Enz kobs [4] |
| --- | --- | --- | --- | --- |
| C=CC(=O)N1CC(O)(C(=O)N2CCC(n3cc(-c4cnc5ccc(Nc6cc(OC)cc(OC)c6)cc5n4)cn3)CC2)C1 [Example 26, 1-(3-(4-(4-(7-((3,5-dimethoxyphenyl)amino)quinoxalin-2-yl)-1H-pyrazol-1-yl)piperidine-1-carbonyl)-3-hydroxyazetidin-1-yl)prop-2-en-1-one] | 5.78 | 6.82 | 6.92 | 0.01414 min⁻¹ |
| C=CC(=O)N1CC(O)(C(=O)N2CCC(n3cc(-c4cnc5ccc(N(C)c6cc(OC)cc(OC)c6)cc5n4)cn3)CC2)C1 [Example 27, 1-(3-(4-(4-(7-((3,5-dimethoxyphenyl)(methyl)amino)quinoxalin-2-yl)-1H-pyrazol-1-yl)piperidine-1-carbonyl)-3-hydroxyazetidin-1-yl)prop-2-en-1-one] | 6.89 | 7.92 | 7.92 | 0.00987 min⁻¹ |
| C#CCN(c1cc(OC)cc(OC)c1)c1ccc2ncc(-c3cnn(C4CCN(C(=O)C5(F)CN(C(=O)/C=C/CN(C)C)C5)CC4)c3)nc2c1 [Example 28, (E)-1-(3-(4-(4-(7-((3,5-dimethoxyphenyl)(prop-2-yn-1-yl)amino)quinoxalin-2-yl)-1H-pyrazol-1-yl)piperidine-1-carbonyl)-3-fluoroazetidin-1-yl)-4-(dimethylamino)but-2-en-1-one] | 7.47 | 8.10 | 8.30 | 0.078 min⁻¹ |
| C=CC(=O)N1CC(CN2CCC(n3cc(-c4cnc5ccc(Nc6cc(OC)cc(OC)c6)cc5n4)cn3)CC2)(OC)C1 [Example 29, 1-(3-((4-(4-(7-((3,5-dimethoxyphenyl)amino)quinoxalin-2-yl)-1H-pyrazol-1-yl)piperidin-1-yl)methyl)-3-methoxyazetidin-1-yl)prop-2-en-1-one] | 6.69 | 7.60 | 6.48 | 0.01671 min⁻¹ |
| C=CC(=O)N1CC(CN2CCC(n3cc(-c4cnc5ccc(Nc6cc(OC)cc(OC)c6)cc5n4)cn3)CC2)C1 [Example 30, 1-(3-((4-(4-(7-((3,5-dimethoxyphenyl)amino)quinoxalin-2-yl)-1H-pyrazol-1-yl)piperidin-1-yl)methyl)azetidin-1-yl)prop-2-en-1-one] | 6.65 | 7.62 | 6.80 | 0.01591 min⁻¹ |
